Laboratory results reported in patent US20230278972A1, “SUBSTITUTED HALOALKYL SULFONANILIDE HERBICIDES” (FMC Corporation, priority 2020, published 2023).

Legend:
Format in all cases: in vivo
[1] = tested on: Ryegrass, Italian (Italian ryegrass, Lolium multiflorum); experiment: Test A preemergence, Ryegrass, Italian; settings: Preemergence; for Ryegrass, Italian plant response rating: visual injury on 0 to 100 scale (0 no effect, 100 complete control), approximately 10 days; for Plant response rating, Ryegrass, Italian: 0 to 100 scale (0 no effect, 100 complete control)
How it was run: (§1)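 Greenhouse pot test in a loam–sand blend; compounds delivered in a non-phytotoxic solvent carrying a surfactant, applied either as a directed spray to soil at seeding or over seedlings 2 to 10 cm high with one to two leaves.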

[2] = tested on: Ryegrass, Italian (Italian ryegrass, Lolium multiflorum); experiment: Test A postemergence, Ryegrass, Italian; settings: Postemergence, 0 to 100 scale (0 no effect, 100 complete control); for Ryegrass, Italian plant response rating: 500 g ai/ha, visual injury vs untreated controls after approx. 10 days
How it was run: as §1

[3] = tested on: pigweed (Amaranthus retroflexus); experiment: Test A preemergence, pigweed; settings: for Pigweed plant response rating: visual injury on 0 to 100 scale (0 no effect, 100 complete control), approximately 10 days; for Plant response rating, Pigweed: 0 to 100 scale (0 no effect, 100 complete control)
How it was run: (§2)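 Preemergence: pigweed seeds in loam soil–sand blend received a directed soil spray of test chemicals in a non-phytotoxic solvent with surfactant. Postemergence: barnyardgrass, wheat and galium in pots of the same soil, 2 to 10 cm tall at one- to two-leaf stage, sprayed with the same formulation.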

[4] = tested on: Foxtail, Giant (giant foxtail, Setaria faberi); experiment: Test A postemergence, Foxtail, Giant; settings: Postemergence, 0 to 100 scale (0 no effect, 100 complete control); for Foxtail, Giant plant response rating: 500 g ai/ha, visual injury vs untreated controls after approx. 10 days
How it was run: as §1

[5] = tested on: ragweed (common ragweed, Ambrosia artemisiifolia); experiment: Test A preemergence, ragweed; settings: Preemergence; for Ragweed plant response rating: visual injury on 0 to 100 scale (0 no effect, 100 complete control), approximately 10 days; for Plant response rating, Ragweed: 0 to 100 scale (0 no effect, 100 complete control)
How it was run: as §1

[6] = tested on: wheat (Triticum aestivum); experiment: Test A postemergence, wheat; settings: Postemergence, 0 to 100 scale (0 no effect, 100 complete control); for Wheat plant response rating: 500 g ai/ha, visual injury vs untreated controls after approx. 10 days
How it was run: as §2

[7] = tested on: pigweed (Amaranthus retroflexus); experiment: Test A postemergence, pigweed; settings: Postemergence, 0 to 100 scale (0 no effect, 100 complete control); for Pigweed plant response rating: 500 g ai/ha, visual injury vs untreated controls after approx. 10 days
How it was run: as §1

[8] = tested on: galium (catchweed bedstraw, Galium aparine); experiment: Test A postemergence, galium; settings: Postemergence, 0 to 100 scale (0 no effect, 100 complete control); for Galium plant response rating: 500 g ai/ha, visual injury vs untreated controls after approx. 10 days
How it was run: as §2

[9] = tested on: Foxtail, Giant (giant foxtail, Setaria faberi); experiment: Test A preemergence, Foxtail, Giant; settings: Preemergence; for Foxtail, Giant plant response rating: visual injury on 0 to 100 scale (0 no effect, 100 complete control), approximately 10 days; for Plant response rating, Foxtail, Giant: 0 to 100 scale (0 no effect, 100 complete control)
How it was run: as §1

[10] = tested on: corn (Zea mays); experiment: Test A postemergence, corn; settings: Postemergence, 0 to 100 scale (0 no effect, 100 complete control); for Corn plant response rating: 500 g ai/ha, visual injury vs untreated controls after approx. 10 days
How it was run: as §1

[11] = tested on: kochia (Bassia scoparia); experiment: Test A preemergence, kochia; settings: Preemergence; for Kochia plant response rating: visual injury on 0 to 100 scale (0 no effect, 100 complete control), approximately 10 days; for Plant response rating, Kochia: 0 to 100 scale (0 no effect, 100 complete control)
How it was run: as §1

[12] = tested on: barnyardgrass (Echinochloa crus-galli); experiment: Test A postemergence, barnyardgrass; settings: Postemergence, 0 to 100 scale (0 no effect, 100 complete control); for Barnyardgrass plant response rating: 500 g ai/ha, visual injury vs untreated controls after approx. 10 days
How it was run: as §2

[13] = tested on: kochia (Bassia scoparia); experiment: Test A postemergence, kochia; settings: Postemergence, 0 to 100 scale (0 no effect, 100 complete control); for Kochia plant response rating: 500 g ai/ha, visual injury vs untreated controls after approx. 10 days
How it was run: as §1

[14] = tested on: blackgrass (Alopecurus myosuroides); experiment: Test A postemergence, blackgrass; settings: Postemergence, 0 to 100 scale (0 no effect, 100 complete control); for Blackgrass plant response rating: 500 g ai/ha, visual injury vs untreated controls after approx. 10 days
How it was run: as §1

[15] = tested on: ragweed (common ragweed, Ambrosia artemisiifolia); experiment: Test A postemergence, ragweed; settings: Postemergence, 0 to 100 scale (0 no effect, 100 complete control); for Ragweed plant response rating: 500 g ai/ha, visual injury vs untreated controls after approx. 10 days
How it was run: as §1

[16] = tested on: barnyardgrass (Echinochloa crus-galli); experiment: Test A preemergence, barnyardgrass; settings: Preemergence; for Barnyardgrass plant response rating: visual injury on 0 to 100 scale (0 no effect, 100 complete control), approximately 10 days; for Plant response rating, Barnyardgrass: 0 to 100 scale (0 no effect, 100 complete control)
How it was run: as §1

[17] = 125 g ai/ha, visual injury approx. 10 days
[18] = 1000 g ai/ha, visual injury, approx. 10 days
[19] = 125 g ai/ha, visual injury, approx. 10 days

SMILES	Ryegrass, Italian plant response rating ([1]; 125 g ai/ha)	Plant response rating, Ryegrass, Italian ([1]; 500 g ai/ha)	Plant response rating, Ryegrass, Italian [2, 17]	Ryegrass, Italian plant response rating [2]	Pigweed plant response rating ([3]; 125 g ai/ha)	Plant response rating, Pigweed ([3]; 500 g ai/ha)	Plant response rating, Foxtail, Giant [4, 17]	Foxtail, Giant plant response rating [4]	Plant response rating, Ragweed ([5]; 500 g ai/ha)	Wheat plant response rating [6]	Pigweed plant response rating [7]	Galium plant response rating [8]	Plant response rating, Foxtail, Giant ([9]; 500 g ai/ha)	Corn plant response rating [10]	Plant response rating, Kochia ([11]; 500 g ai/ha)	Barnyardgrass plant response rating [12]	Kochia plant response rating [13]	Blackgrass plant response rating [14]	Ragweed plant response rating [15]	Plant response rating, Barnyardgrass ([16]; 500 g ai/ha)	other results
CCn1nc(C)cc(-c2cc(NS(=O)(=O)C(F)(F)F)c(C)cc2C)c1=O [Compound 68]	90	100	40	80	70	90	20	90	90	80	50	80	100	20	90	80	50	70	80	100	Ragweed plant response rating ([5]; 125 g ai/ha): 30; Plant response rating, Wheat [6, 17]: 70; Plant response rating, Pigweed [7, 17]: 20; Plant response rating, Galium [8, 17]: 50; Foxtail, Giant plant response rating ([9]; 125 g ai/ha): 100; Plant response rating, Corn [10, 17]: 10; Kochia plant response rating ([11]; 125 g ai/ha): 70; Plant response rating, Barnyardgrass [12, 17]: 60; Plant response rating, Kochia [13, 17]: 10; Plant response rating, Blackgrass [14, 17]: 70; Plant response rating, Ragweed [15, 17]: 50; Barnyardgrass plant response rating ([16]; 125 g ai/ha): 100
Cc1cc(C)c(-n2ncccc2=O)cc1NS(=O)(=O)C(F)(F)F [Compound 83]	30	50	0	0	50	90	0	40	20	0	50	80	80	30	70	70	20	0	60	80	Ragweed plant response rating ([5]; 125 g ai/ha): 0; Plant response rating, Wheat [6, 17]: 0; Plant response rating, Pigweed [7, 17]: 40; Plant response rating, Galium [8, 17]: 60; Foxtail, Giant plant response rating ([9]; 125 g ai/ha): 10; Plant response rating, Corn [10, 17]: 0; Kochia plant response rating ([11]; 125 g ai/ha): 60; Plant response rating, Barnyardgrass [12, 17]: 20; Plant response rating, Kochia [13, 17]: 0; Plant response rating, Blackgrass [14, 17]: 0; Plant response rating, Ragweed [15, 17]: 10; Barnyardgrass plant response rating ([16]; 125 g ai/ha): 70
Cc1cc(C)c(C(=O)N2CCC(C(C)(C)C)CC2)cc1NS(=O)(=O)C(F)(F)F [Compound 261]	–	–	–	–	–	–	–	–	–	–	–	–	–	–	–	–	–	–	–	–	Plant response rating, Ryegrass, Italian ([1]; 1000 g ai/ha): 60; Plant response rating, Ryegrass, Italian [2, 18]: 20; Plant response rating, Pigweed ([3]; 1000 g ai/ha): 20; Plant response rating, Foxtail, Giant [4, 18]: 0; Plant response rating, Ragweed ([5]; 1000 g ai/ha): 0; Plant response rating, Wheat [6, 18]: 0; Plant response rating, Pigweed [7, 18]: 30; Plant response rating, Galium [8, 18]: 50; Plant response rating, Foxtail, Giant ([9]; 1000 g ai/ha): 90; Plant response rating, Corn [10, 18]: 10; Plant response rating, Kochia ([11]; 1000 g ai/ha): 0; Plant response rating, Barnyardgrass [12, 18]: 0; Plant response rating, Kochia [13, 18]: 0; Plant response rating, Blackgrass [14, 18]: 0; Plant response rating, Ragweed [15, 18]: 0; Plant response rating, Barnyardgrass ([16]; 1000 g ai/ha): 60
Cc1c(NS(=O)(=O)C(F)(F)F)cc(C(=O)N2CCCCC2)c(C)c1F [Compound 191]	–	100	–	60	–	100	–	20	100	60	70	90	100	10	90	30	20	0	60	100	Plant response rating, Ryegrass, Italian [1, 19]: 70; Plant response rating, Ryegrass, Italian ([2]; 125 g ai/ha): 30; Plant response rating, Pigweed [3, 19]: 100; Plant response rating, Foxtail, Giant ([4]; 125 g ai/ha): 0; Plant response rating, Ragweed [5, 19]: 60; Plant response rating, Wheat ([6]; 125 g ai/ha): 30; Plant response rating, Pigweed ([7]; 125 g ai/ha): 20; Plant response rating, Galium ([8]; 125 g ai/ha): 70; Plant response rating, Foxtail, Giant [9, 19]: 100; Plant response rating, Corn ([10]; 125 g ai/ha): 0; Plant response rating, Kochia [11, 19]: 90; Plant response rating, Barnyardgrass ([12]; 125 g ai/ha): 0; Plant response rating, Kochia ([13]; 125 g ai/ha): 0; Plant response rating, Blackgrass ([14]; 125 g ai/ha): 0; Plant response rating, Ragweed ([15]; 125 g ai/ha): 20; Plant response rating, Barnyardgrass [16, 19]: 100
